Experimental data published in patent US9493479B2 (Merck Sharp & Dohme Corp., priority 2013, dated 2016).
Structures can show the parent of a compound that is named as a salt.

Key:
[1] = target: T1, WT-Integrase (Human immunodeficiency virus type 1 group M subtype B, UniProt P04585); experiment: InSTANT integrase DNA strand transfer functional assay; type: biochemical, HIV; conditions: SPA strand transfer, 15 minutes at 37° C.
T1 construct: assembled PVT SPA beads with WT-Integrase and boitinylated DNA
Experimental: InSTANT is an integrase DNA strand transfer functional assay used to determine potency of InSTIs, which was carried out as described below. 8 μl of SPA buffer (27.8 mM Hepes, 27.8 mM MgCl2, 111.1 μg/mL BSA, 5.56 mM βME, and 57.1 mM NaCl) containing 5 nM 3H-labeled target DNA (prepared separately) and 10 μl of assembled PVT SPA beads with WT-Integrase and boitinylated DNA (prepared separately) were added to the assay plate which contained 0.4 μl of test compound(s) or positive or negative control compound(s) per well. The assay plate was shaken for 1 minute on HT-91002 1.0 MM shaker and then was sealed and incubated for 15 minutes at 37° C. The assay reaction was quenched by adding 4 μl of 1.25 M EDTA to each well of the assay plate with mixing. After incubating the plate at room temperature for 1 hour, the quenched plate was spun at 200 g for 1 minute and read on TopCount (1 minute per well). Percent inhibition was calculated by [1−(Sample−Min)/(Max−Min)]*100. Compound potency IP or IC50 was determined by a 4-parameter dose response curve analysis.

[2] = test system: HIV-1 (NL4-3 strain); experiment: ViKinG (Viral Kinetics GFP Reporter) assay for inhibition of HIV replication; type: cell-based; conditions: MT4-GFP cells infected with HIV-1 NL4-3, RPMI + 10% or 50% NHS (not given), infected cells at 48 h / 24 h
Excerpt: The ViKinG (Viral Kinetics GFP Reporter) assay is an in vitro kinetic assay that employs the MT4-gag-GFP reporter cell line (Wang et al., “Assessment of the susceptibility of mutant HIV-1 to antiviral agents.” J Virological Methods 165:230-37 (2010)) to quantify the number of new cells infected in each round of replication. The purpose of the ViKinG assay is to identify agents that inhibit HIV progression. Briefly, HIV infection results in tat transactivation of the stably expressed HIV LTR promoter to drive gagGFP expression. Thus, an increase in the number of GFP-MT4 cells results following HIV infection.
MT4-GFP cells (250,000 cells/m1) were bulk-infected with HIV-1 (NL4-3 strain) at low multiplicity of infection (MOT) in RPMI+10% FBS for 24 hours. Cells were then washed once in RPMI+10% FBS and resuspended RPMI+10% or 50% normal human serum (NHS). Test compounds were serial-diluted in DMSO on an ECHO® liquid handling platform (Labcyte Corp., Sunnyvale, Calif.), along with a triple drug control (integrase, protease and NNRTI compounds). The infected MT4-GFP cells were added to a 384-well poly-D-lysine coated black plate with clear bottom in which the diluted test compounds were placed. The cells were seeded at 8,000 cells per well and the final DMSO concentration was 0.4%. The infected cells (Green GFP cells) were quantified at both 24 and 48 hours post incubation using Acumen® eX3 (TTP Labtech Ltd., Hertfordshire, United Kingdom). Viral reproductive ratio (R0) was determined using the number of infected cells at 48 hours divided by the number of infected cells at 24 hours. Percent viral growth inhibition was calculated by [1−(R−Rtripledrug)/(RDMSO−Rtripledrug)]*100. Compound potency IP or IC50 was determined by a 4-parameter dose response curve analysis.

[3] = Human immunodeficiency virus 1, NL43

SMILES | IC50 [1] [nM] | IC50 [2, 3] [nM] | IC50 [2] [nM]
O=C1c2c(O)c(=O)c3c(n2CCN1Cc1ccc(F)c(Cl)c1)COCCC3 [Compound 1, 9-(3-chloro-4-fluorobenzyl)-7-hydroxy-4,5,10,11-tetrahydro-1H-oxepino[4′,3′:5,6]pyrido[1,2-a]pyrazine-6,8(3H,9H)-dione] | 58 | 347 | –
O=C1c2c(O)c(=O)c3c(n2CCN1Cc1ccc(F)c(Cl)c1)COCC=C3 [Compound 2, 9-(3-chloro-4-fluorobenzyl)-7-hydroxy-10,11-dihydro-1H-oxepino[4′,3′:5,6]pyrido[1,2-a]pyrazine-6,8(3H,9H)-dione] | 11 | 76 | –
O=C1c2c(O)c(=O)c3c(n2CCN1Cc1ccc(F)c(Cl)c1)COCC1CC31 (centres unmarked) [Compound 3, 2-(3-chloro-4-fluorobenzyl)-11-hydroxy-3,4,8,8a,9,9a-hexahydrocyclopropa[5′,6]oxepino[4′,3′:5,6]pyrido[1,2-a]pyrazine-1,10(2H,6H)-dione] | – | 241 | –
CC1=CCOCc2c1c(=O)c(O)c1n2CCN(Cc2ccc(F)c(Cl)c2)C1=O [Compound 4, 9-(3-chloro-4-fluorobenzyl)-7-hydroxy-5-methyl-10,11-dihydro-1H-oxepino[4′,3′:5,6]pyrido[1,2-a]pyrazine-6,8(3H,9H)-dione] | 18 | 91 | –
C/C=C1\COCc2c1c(=O)c(O)c1n2CCN(Cc2ccc(F)c(Cl)c2)C1=O [Compound 5, (Z)-8-(3-chloro-4-fluorobenzyl)-4-ethylidene-6-hydroxy-3,4,9,10-tetrahydropyrano[4′,3′:5,6]pyrido[1,2-a]pyrazine-5,7(1H,8H)-dione] | – | 183 | –
CCC1COCc2c1c(=O)c(O)c1n2CCN(Cc2ccc(F)cc2)C1=O (centres unmarked) [Compound 6] | 21 | 492 | –
CCC1COCc2c1c(=O)c(O)c1n2CCN(Cc2ccc(F)c(Cl)c2)C1=O (centres unmarked) [Compound 7] | 13 | 461 | –
CC1CC12COCc1c2c(=O)c(O)c2n1CCN(Cc1ccc(F)c(Cl)c1)C2=O (centres unmarked) [Compound 8, 8′-(3-chloro-4-fluorobenzyl)-6′-hydroxy-2-methyl-9′,10′-dihydro-1′H-spiro[cyclopropane-1,4′-pyrano[4′,3′:5,6]pyrido[1,2-a]pyrazine]-5′,7′(3′H,8′H)-dione] | 28 | 507 | –
O=C1c2c(O)c(=O)c3c(n2CCN1Cc1ccc(F)cc1)COCCCC3 [Compound 9, 10-(4-fluorobenzyl)-8-hydroxy-3,4,5,6,11,12-hexahydrooxocino[4,3′:5,6]pyrido[1,2-a]pyrazine-7, 9(1H, 1 OH)-dione] | – | – | 961
CC(C)c1c(CNC(=O)c2ccon2)n2c(c(O)c1=O)C(=O)N(Cc1ccc(F)c(Cl)c1)CC2 [Compound 10, N-((2-(3-chloro-4-fluorobenzyl)-9-hydroxy-7-isopropyl-1,8-dioxo-2,3,4,8-tetrahydro-1H-pyrido[1,2-a]pyrazin-6-yl)methyl)isoxazole-3-carboxamide] | – | 406 | –
C=C1COCc2c1c(=O)c(O)c1n2CCN(Cc2ccc(F)c(Cl)c2)C1=O [Compound 11, 8-(3-chloro-4-fluorobenzyl)-6-hydroxy-4-methylene-3,4,9,10-tetrahydropyrano[4′,3′:5,6]pyrido[1,2-a]pyrazine-5,7(1H,8H)-dione] | – | 298 | –
O=C1c2c(O)c(=O)c3c(n2CCN1Cc1ccc(F)c(Cl)c1)COC31C=CCC1 (centres unmarked) [Compound 12, 7′-(3-chloro-4-fluorobenzyl)-5′-hydroxy-8′,9′-dihydrospiro[cyclopent[2]ene-1,3′-furo[3′,4′:5,6]pyrido[1,2-a]pyrazine]-4′,6′(1′H,7′H)-dione] | – | – | 1020
O=C1c2c(O)c(=O)c3c(n2CCN1Cc1ccc(F)c(Cl)c1)COC31CCC2CC21 (centres unmarked) [Compound 13] | 8 | 333 | –
O=C1c2c(O)c(=O)c3c(n2CCN1Cc1ccc(F)c(Cl)c1)COC31CCCC1O (centres unmarked) [Compound 14, 7′-(3-chloro-4-fluorobenzyl)-2,5′-dihydroxy-8′,9′-dihydrospiro[cyclopentane-1,3′-furo[3′,4′:5,6]pyrido[1,2-a]pyrazine]-4′,6′(1′H,7′H)-dione] | 12 | 144 | –
O=C1c2c(O)c(=O)c3c(n2CCN1Cc1ccc(F)c(Cl)c1)COC31C=CCCC1 (centres unmarked) [Compound 15, 7′-(3-chloro-4-fluorobenzyl)-5′-hydroxy-8′,9′-dihydrospiro[cyclohex[2]ene-1,3′-furo[3′,4′:5,6]pyrido[1,2-a]pyrazine]-4′,6′(1′H,7′H)-dione] | – | 401 | –
CC1CCNCc2c1c(=O)c(O)c1n2CCN(Cc2ccc(F)c(Cl)c2)C1=O (centres unmarked) [Compound 16, 9-(3-chloro-4-fluorobenzyl)-7-hydroxy-5-methyl-2,3,4,5,10,11-hexahydropyrazino[1′,2′:1,6]pyrido[2,3-c]azepine-6,8(1H,9H)-dione trifluoroacetate salt] | – | 487 | –
C=C1CCN(C(=O)C(=O)N(C)C)Cc2c1c(=O)c(O)c1n2CCN(Cc2ccc(F)c(Cl)c2)C1=O [Compound 17, 2-(9-(3-chloro-4-fluorobenzyl)-7-hydroxy-5-methylene-6,8-dioxo-4,5,8,9,10,11-hexahydropyrazino[1′,2′:1,6]pyrido[2,3-c]azepin-2(1H,3H,6H)-yl)-N,N-dimethyl-2-oxoacetamide] | – | > 4200 | –
CC1CCN(C(=O)C(=O)N(C)C)Cc2c1c(=O)c(O)c1n2CCN(Cc2ccc(F)c(Cl)c2)C1=O (centres unmarked) [Compound 18, 2-(9-(3-chloro-4-fluorobenzyl)-7-hydroxy-5-methyl-6,8-dioxo-4,5,8,9,10,11-hexahydropyrazino[1′,2′:1,6]pyrido[2,3-c]azepin-2(1H,3H,6H)-yl)-N,N-dimethyl-2-oxoacetamide] | 20 | 3660 | –
CC(C)c1c(C(=O)N(C)C)n2c(c(O)c1=O)C(=O)N(Cc1ccc(F)c(Cl)c1)CC2 [Compound 19, 2-(3-chloro-4-fluorobenzyl)-9-hydroxy-7-isopropyl-N,N-dimethyl-1,8-dioxo-2,3,4,8-tetrahydro-1H-pyrido[1,2-a]pyrazine-6-carboxamide] | 10 | 82 | –
CC(C)c1c(C(=O)N(C)C)n2c(c(O)c1=O)C(=O)N(Cc1ccc(F)cc1)CC2 [Compound 20, 2-(4-fluorobenzyl)-9-hydroxy-7-isopropyl-N,N-dimethyl-1,8-dioxo-2,3,4,8-tetrahydro-1H-pyrido[1,2-a]pyrazine-6-carboxamide] | 20 | 286 | –
CN1C/C=C\Cc2c(n3c(c(O)c2=O)C(=O)N(Cc2ccc(F)c(Cl)c2)CC3)C1=O [Compound 23, (Z)-10-(3-chloro-4-fluorobenzyl)-8-hydroxy-2-methyl-2,3,11,12-tetrahydro-1H-pyrazino[1′,2′:1,6]pyrido[2,3-c]azocine-1,7,9(6H,10H)-trione] | – | 273 | –
CCc1cn(C)c(=O)c2c1c(=O)c(O)c1n2CCN(Cc2ccc(F)c(Cl)c2)C1=O [Compound 24, 8-(3-chloro-4-fluorobenzyl)-4-ethyl-6-hydroxy-2-methyl-9,10-dihydro-1H-pyrazino[1,2-a][1,7]naphthyridine-1,5,7(2H,8H)-trione] | – | 1120 | –
C=C(C)C1COCc2c1c(=O)c(O)c1n2CCN(Cc2ccc(F)c(Cl)c2)C1=O (centres unmarked) [Compound 26] | – | 272 | –
CC(C)C1COCc2c1c(=O)c(O)c1n2CCN(Cc2ccc(F)cc2)C1=O (centres unmarked) [Compound 27] | – | 672 | –
C=C1CCOCc2c1c(=O)c(O)c1n2CCN(Cc2ccc(F)c(Cl)c2)C1=O [Compound 28] | – | 503 | –
C=C1CCN(C(=O)CN(C)C)Cc2c1c(=O)c(O)c1n2CCN(Cc2ccc(F)c(Cl)c2)C1=O [Compound 29] | – | > 4200 | –
CC1CCN(C(=O)CN(C)C)Cc2c1c(=O)c(O)c1n2CCN(Cc2ccc(F)c(Cl)c2)C1=O (centres unmarked) [Compound 30] | – | 3250 | –
